US20090275562A1 (Cypress Biosciences, Inc., priority 2008, published 2009)

Key:
[1] = Example 1A clinical study, 6-week weight gain/loss with mirtazapine and reboxetine; format: in vivo, human; conditions: for Mean Change from Baseline (weight): Week 6, 4 mg reboxetine morning, 15 mg mirtazapine evening, female volunteers; for mean change in body mass over the course of the study, in words (FIGS. 1-4): completers with fasted body mass at baseline and end of week 6; for 6-week weight gain (or loss), in words: versus placebo, 6 weeks of therapy
Description: All medications were administered in an over-encapsulated format that ensures blinding of study participants, staff and investigators. All subjects received a total of 6 weeks of therapy. Vital signs and weight assessments were made at clinic visits at the beginning and end of the study and at various times during the study. Patient outcomes of sleep quality and propensity were evaluated using the Karolinska Sleepiness Scale (KSS) and the Epworth Sleepiness Scale (ESS). Standard safety review was also conducted for each of the subjects, including recordation of any adverse events.
Sensitivity analysis was performed for completers and for intention-to-treat, last observation carried forward ([…]).

[2] = Example 1 tolerability study of mirtazapine and reboxetine in healthy subjects; format: in vivo, human; conditions: 6 weeks; 15 mg mirtazapine evening, 2 or 4 mg reboxetine morning; present-tense example
Description: (§1) The subjects receive 2 capsules per day, one in the morning and one at bedtime. […] All medications are administered in an over-encapsulated format that ensures blinding of study participants, staff and investigators. All subjects are scheduled to receive a total of 6 weeks of therapy, and are required to return to the clinics after 1, 2, 4 and 6 weeks of therapy. Patients are required to complete paper self-assessments, electronic diary assessments, computer based cognitive testing, as well as vital signs and weight assessments at the clinic visits.

[3] = Example 4 tolerability study of mirtazapine and betahistine in healthy subjects; format: in vivo, human; conditions: 6 weeks; 15 mg mirtazapine evening, 8 or 16 mg betahistine morning; present-tense example
Description: as §1

[4] = test system: 5-HT and NA reuptake sites; conditions: from U.S. Pat. No. 6,642,235; cited from earlier work
[5] = controlled studies, cited from earlier work
[6] = Completers and MF (morning fasting) weight

Mean Change from Baseline (weight) [1, 6] [kg] | Mean Change from Baseline (weight) ([1]; Completers and NMF weight) [kg] | Mean Change from Baseline (weight) ([1]; ITT-LOCF & NMF weight) [kg] | Mean Change from Baseline (weight) ([1]; ITT-LOCF and MF weight) [kg] | mean change in body mass over the course of the study, in words (FIGS. 1-4) [1] | 6-week weight gain (or loss), in words [1] | Molecule | side effects caused, in words [2] | side effects caused, in words [3] | norepinephrine reuptake inhibitor selectivity (Ki5HT/KiNA) [4] | weight gain of greater than or equal to 7% of body weight, share of patients ([5]; placebo 0%) [%] | appetite increase reported, share of patients ([5]; placebo 2%) [%] | increase in body weight / weight gain ([1]; 6 weeks, text summary of the tables (values of Table 1A-1, mean ± standard error)) [kg]
-1.61 | -1.7 | -1.693 | -1.685 | decrease in body mass | weight loss as compared to placebo-only | CCOc1ccccc1OC(c1ccccc1)C1CNCCO1 (racemic) [reboxetine, 2-[(2-ethoxyphenoxy)-phenyl-methyl]morpholine] | insomnia, nausea/vomiting, and weight loss | insomnia, nausea/vomiting, and weight loss | about 80 |  |  | 
 |  |  |  |  |  | CN(C)CCC=C1c2ccccc2CCc2ccccc21 [amitriptyline] |  |  |  | 5.9 | 6 | 
2.215 | 1.943 | 1.8 | 2.043 | marked increase in body mass | significantly greater weight gain | CN1CCN2c3ncccc3Cc3ccccc3C2C1 (stereo not drawn) [mirtazapine, 1,2,3,4,10,14b-hexahydro-2-methylpyrazino[2,1-a]pyrido[2,3-c]benzazepine] | weight gain, sedation, and cognitive deficits | weight gain, sedation, and cognitive deficits |  |  |  | 2.215 ± 0.385
 |  |  |  |  |  | (S,S)reboxetine |  |  | about 12,700 |  |  | 
